Test results from patent publication US4921504A, “4-(N-ethyl-N-2-hydroxyethyl)-amino-1-(2 hydroxyethyl)-amino-2-nitrobenzene and compositions for dyeing hair containing the same” (Wella Aktiengesellschaft, priority 1984, dated 1990).
Converted amounts (≈) assume the structure as drawn. Like-named read-outs stand apart in the source and are kept apart here.

How the values were obtained:
[1] = tested on: human-lymphocyte; assay: human-lymphocyte-test; format: cell-based
[2] = general toxicological safety; details: compared with compounds II through VI
[3] = LD50 (toxicity); details: in vivo
[4] = storage stability of dyes; format: physicochemical; details: in dye compositions
[5] = Ames test; format: cell-based
[6] = skin compatibility
[7] = light genuiness; format: physicochemical; details: nitro dyes containing compound I
[8] = tested on: mouse-lymphoma; assay: mouse-lymphoma-assay; format: cell-based
[9] = tested on: yeast cell; assay: yeast cell-mutagenity test; format: cell-based
Source text: 2. yeast cell-mutagenity test

[10] = solubility in water; format: physicochemical
Source text: In view of the foregoing, it was most surprising to find the blue nitro dye (compound I), being an isomer of compound III and a homologue of compound VI, has sufficiently different characteristics which cannot be derived from known compounds III, IV, V or VI. The dye (I) in accordance with the present invention has a solubility of about 1.0% in water which facilitates the acquisition of dark shades considerably, particularly, in comparison with compound III. […] Rather, an oil is formed from which the dye can later be supplied during the dyeing process. The alternative of redissolving formed crystals would take too much time and, as a result, such crystals would not, again, be available during the dyeing process.

[11] = prior-art compound, cited from earlier work
[12] = prior-art compound; cited from earlier work
[13] = prior-art compound; doubts recently raised regarding safe use; cited from earlier work
[14] = in water without also having to dissolve intermediaries (III)

CCN(CCO)c1ccc(NCCO)c([N+](=O)[O-])c1 [Compound I, 4-(N-ethyl-N-2'-hydroxyethyl)-amino-1-(2"-hydroxyethyl)-amino-2-nitrobenzene]
mutagenicity in human-lymphocyte-test [1]: not mutagenic
toxicological safety [2]: safe
LD50 [3]: ~2000 mg/kg
storage stability [4]: extraordinary
mutagenicity in Ames test [5]: not mutagenic
skin compatibility [6]: good skin compatibility
light genuiness [7]: very good
mutagenicity in mouse-lymphoma-assay [8]: not mutagenic
mutagenicity in yeast cell-mutagenity test [9]: not mutagenic
behaviour when exceeding solubility ([10]; exceeding solubility, an oil is formed): does not crystallize
solubility ([10]; in water): ~10000 µg/mL (≈ 37.1 mM)

CCNc1ccc(N(CCO)CCO)cc1[N+](=O)[O-] [III]
solubility in water [11, 14]: below 0.15%

O=[N+]([O-])c1cc(N(CCO)CCO)ccc1NCCO [IV]
solubility in water [11]: high solubility

CN(CCO)c1ccc(NCCO)c([N+](=O)[O-])c1 [VI]
mutagenic effect in Ames test [12]: mutagenic effect

CNc1ccc(N(CCO)CCO)cc1[N+](=O)[O-] [V]
solubility in water [11, 14]: about 0.5%
level of toxicity [13]: possibly unacceptable
